Experimental data from US20170246230A1, “PHARMACEUTICAL COMPOSITION FOR TREATING INFERTILITY, AND PREPARATION METHOD AND USE THEREOF” (priority 2014, published 2017).

What was measured:
Format in all cases: in vivo, Kunming mice
[1] = test system: mice with sterility induced by androgens; test: Conception conditions of mated female mice after the medication; settings: 18 mg/kg, 4 weeks, 10 d after mating
Procedure: (§1) 120 Kunming female mice (20 days old) were randomly divided into 6 groups according to their weights and there were 20 in each group. 20 mice in the normal control group were subcutaneously injected with saline and the remaining 100 mice were used in modeling and subcutaneously injected with TP (testosterone propionate). The modeling method is described like this, 100 mice were subcutaneously injected with 0.06 mL TP (testosterone propionate), 4 d/time, continuous injection for 2 weeks and drug withdrawal for 1 weeks. Those mice after modelling were randomly divided into […], i.e. model control group, Clomifenecitrate capsules group and HDG (high-dose group), MDG (medium-dose group) and LDG (low-dose group) of the drug combination in the present invention.
(§2) After 4 weeks of administration, the drug was suspended for 48 h, 10 mice were executed in each group and the remaining 10 mice were left to carry out the conception rate test.
To put 10 mice from each cage into the cage where 4 normally-matured male mice. 10 d after the mating, uterus of female mice were dissected to observe the conception conditions.

[2] = test system: mice with sterility induced by androgens; test: Quantities of follicles, oocytes and interstitial gland composition in ovary slices of androgen-sterile mice; settings: 18 mg/kg intragastric, 4 weeks, TP-modelled mice
Procedure: as §1, §2
Mice were executed and their ovaries and uterus were removed. Ovaries were fixed with […] and tissue slices were observed under the ordinary optical microscope after the process of HE tinction and oil red 0 tinction. Uterus were fixed with 100 g/L formaldehyde and tissue slices were imbedded with paraffin and undergone the process of 4 μm slicing and ER marking. Light microscopy was used for observation after the hematoxylin counter staining.

[3] = test system: mice with sterility induced by androgens; test: Estradiol (E2) content in sera of mice with sterility induced by androgens (ELISA); settings: 18 mg/kg intragastric, 4 weeks, TP-modelled female mice, serum
Procedure: Blank control group: Intragastrically administrated with distilled water on daily basis at a dose of 2 ml/d;
Model control group: Intragastrically administrated with distilled water on daily basis and at a dose of 2 ml/d;
Irrigation was stopped for 48 h, orbital blood of mice was collected, serum was separated and enzyme linked immunosorbent assay was used to detect E2.

## CCN(CC)CCOc1ccc(C(=C(Cl)c2ccccc2)c2ccccc2)cc1 [Clomifenecitrate capsules, Clomifenecitrate]
[1]; 10 female mice
  Number of conception: 6 mice
[1]
  Rate of conception: 60.0%
[2]
  Interstitial gland composition: 24.96 ± 5.00
  Quantity of follicles: 37.6 ± 6.4 piece
  Quantity of oocytes: 8.7 ± 2.2 piece
[3]
  E2: 12.76 ± 4.98 µg/L
